Test results from patent US11786608B2, “Isoquinolinyl triazolone complexes” (Takeda Pharmaceutical Company Limited, priority 2016, dated 2023).

Target: human BTK (Homo sapiens (Human), UniProt Q06187)
Assay: BTK inhibition assay (phosphorylation of 5-FAM-labeled substrate, Caliper LC-3000)
Format: biochemical
Conditions: residues 382 to 659 of human BTK; 60 minutes at room temperature
Source text: The activity of compound of Formula 1, stereoisomer thereof, or tautomers of the compound as Formula 1 or stereoisomer thereof, as BTK inhibitors may be determined by a variety of methods, including in vitro and in vivo methods. The following in vitro assay measures a test compound's ability to inhibit BTK-mediated phosphorylation of a FAM-labeled substrate, 5-FAM-[…]-NH2.
Purified BTK may be obtained as follows (Clone SBVC-1603_9P is used). A cDNA sequence encoding residues 382 to 659 of human BTK is cloned into the vector pSXB4. This construct engineers an in-frame translational fusion with the Glutathione-S-Transferase (GST) protein for use in affinity purification. The fusion protein derived from this construct contains a protease recognition sequence to liberate the BTK from the GST affinity tag. High-titer baculoviral stocks, generated using the Bac-to-Bac® system (Invitrogen), are used to express the recombinant protein in Spodoptera frugiperda Sf9 cells in 10 L Wave bags. Recombinant proteins are isolated from cellular extracts by passage over Glutathione Sepharose 4B (GE Healthcare) and the BTK moiety is released from the GST affinity tag by treatment with PreScission protease. […] The purity of the fractions is assessed by SDS PAGE and the peak protein fractions are pooled and concentrated using Amicon Ultra-15 Centrifugal Filter Devices (Millipore).

human BTK, sequence (Q06187 382-659): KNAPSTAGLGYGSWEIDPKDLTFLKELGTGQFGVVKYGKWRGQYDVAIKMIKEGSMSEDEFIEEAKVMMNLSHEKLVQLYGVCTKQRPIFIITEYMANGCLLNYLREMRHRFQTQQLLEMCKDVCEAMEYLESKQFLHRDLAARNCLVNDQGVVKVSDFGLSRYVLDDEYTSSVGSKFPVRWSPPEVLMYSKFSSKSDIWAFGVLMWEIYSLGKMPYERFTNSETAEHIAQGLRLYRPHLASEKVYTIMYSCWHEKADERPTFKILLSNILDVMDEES

Structure (SMILES): C=CC(=O)N1CC[C@H](Oc2nc(-c3n[nH]c(=O)[nH]3)cc3ccccc23)C1 [Example 1, (S)-3-(1-((1-acryloylpyrrolidin-3-yl)oxy)isoquinolin-3-yl)-1H-1,2,4-triazol-5(4H)-one]
- BTK Inhibition (pIC50): >8.7
